Here are results for 105 compounds from PubChem BioAssay AID1996.

Structures are written as SMILES. Values after ≈ are worked out from the molar mass of the structure shown.

For this series the following is noted: buffer; pH 7.4; 200.0 µM.
On to `Cc1cc(C)c2cc(C(=O)N3CCc4ccccc4C3)[nH]c2c1`, for which the kinetic solubility – broadly, solubility judged after dilution from a stock solution rather than from solid – worked out at 0.5 µg/mL (≈ 1.64 µM).
Turning to `CC1(C)CC(=O)C=C(Nc2ccc([N+](=O)[O-])cc2)C1`, the kinetic solubility worked out at 22.8 µg/mL (≈ 87.6 µM).
Regarding `CCOC(=O)c1ccsc1NC(=O)c1ccco1`, the solubility (kinetic) was less than 0.6 µg/mL.
`COc1ccc(C2c3ccsc3CCN2C(=O)NC(C)(C)C)cc1` (stereo not given): the solubility (kinetic) amounted to 1.5 µg/mL (≈ 4.35 µM).
As to `Cc1cc(SCc2ccc(Br)cc2)nc(=O)[nH]1`, the solubility (kinetic) is 6 µg/mL (≈ 19.3 µM).
With `NS(=O)(=O)c1ccc(N=Cc2c(O)c3ccccc3oc2=O)cc1` the figure was 19.9 µg/mL (≈ 57.8 µM); with `CSc1ccccc1C(=O)C1CCCN(Cc2ccncc2)C1` (stereo not given), 41.4 µg/mL (≈ 127 µM).
`Cc1ccc(-c2nc(NCCCO)c3ccccc3n2)cc1` gave a kinetic solubility of 37.3 µg/mL (≈ 127 µM). This solubility kinetic and that of the compound before are within 1.5-fold of each other.
The compound `O=[N+]([O-])c1cccc(OCc2cn3cccnc3n2)c1` gave a kinetic solubility greater than 40.5 µg/mL.
As to `O=C(NCC(c1ccco1)N1CCOCC1)c1ccccc1` (stereo not given), the kinetic solubility was greater than 45.1 µg/mL.
Compound `O=C(Cc1ccsc1)Nc1ccc(Cl)cc1Cl` displayed a kinetic solubility of 3.8 µg/mL (≈ 13.3 µM).
On to `O=C(NC1CCN(C(=S)Nc2ccc(Cl)cc2)CC1)c1ccco1`, for which the kinetic solubility is greater than 54.6 µg/mL.
As for `COc1cc(/C=C/c2noc(-c3ccccc3O)n2)ccc1OC(C)=O`, the solubility (kinetic) is less than 0.4 µg/mL.
For `CCN(Cc1nc(-c2ccccc2)no1)C(=O)c1ccoc1C`, the solubility (kinetic) came out at 40.2 µg/mL (≈ 129 µM).
Turning to `Cl.Nc1cc(Cl)ccc1N1CCCC1`, the solubility (kinetic) worked out at 10.6 µg/mL.
`COc1ccc(NC(=S)NC(=NS(=O)(=O)c2ccc(Cl)cc2)c2ccccc2)cc1` had a kinetic solubility of 47.3 µg/mL (≈ 103 µM).
With `CCN(CC)C(=O)COc1ccc2c(-c3ccccc3)cc(=O)oc2c1` the figure was 40.7 µg/mL (≈ 116 µM); with `Cc1cc(C(=O)OC(C)C(=O)NC2CCCCC2)c(C)o1` (stereo not given), 15.7 µg/mL (≈ 53.5 µM); with `CC(OC(=O)c1cc[n+]([O-])cc1)C(=O)NCc1ccccc1` (stereo not given), greater than 45 µg/mL.
With `COc1cccc(CN2CCN(C(=O)Cc3ccccc3OC)CC2)c1`, the kinetic solubility was greater than 53.2 µg/mL.
`CCC(CO)NCc1ccccc1OC(C)C.Cl` (stereo not given): the kinetic solubility is greater than 41.1 µg/mL.
Consider `COc1ccc(-c2csc(NC3CCCCC3)n2)c(OC)c1`, for which the solubility (kinetic) was 10.3 µg/mL (≈ 32.3 µM).
In the case of `Cc1ccc(CONC(=O)c2ccc(Cl)cc2)cc1`, the kinetic solubility came to 2 µg/mL (≈ 7.25 µM).
The compound `O=C(Nc1ccccc1)Nc1ccc(Cl)nc1Cl` registered a solubility (kinetic) of 3.9 µg/mL (≈ 13.8 µM).
`Cc1cc(C)c(C#N)c(Nc2ccccc2F)n1` registered a solubility (kinetic) of 5.1 µg/mL (≈ 21.1 µM). This solubility kinetic and that of the compound before are within 1.5-fold of each other.
`CC(=O)c1ccc(N2CCN(C(=S)NCCCN(C)C)CC2)cc1` registered a solubility (kinetic) greater than 52.3 µg/mL.
In turn, `CCNC(=S)N1CCC(C(=O)c2ccc3c(c2)OCCO3)CC1` returned a kinetic solubility of 44.8 µg/mL (≈ 134 µM).
In the case of `COCCNc1nc(-c2ccccc2)nc2c1oc1ccccc12.Cl`, the kinetic solubility turned out to be 4.6 µg/mL.
For the compound `O=C(NCC1CCCCC1)c1ccc(Cl)nc1`, the solubility (kinetic) is greater than 37.9 µg/mL.
Consider `Cc1noc(C)c1CSc1ccccc1C(=O)O`, for which the kinetic solubility was greater than 39.5 µg/mL.
`CC1(C)Cc2nc3[nH]c(=S)[nH]c(=O)c3cc2CO1`: the kinetic solubility was greater than 39.5 µg/mL.
On to `COc1cccc(OCCn2cc(C(C)=O)c3ccccc32)c1`, for which the kinetic solubility was found to be 10.9 µg/mL (≈ 35.2 µM).
With `COc1ccccc1CCNC(=O)Cn1c(=O)oc2ccccc21` the figure was greater than 49 µg/mL.
With `CC1CN(C(=S)Nc2cccc(F)c2)CC(C)O1` (stereo not given) the figure was 40.2 µg/mL (≈ 150 µM).
`O=C(COC(=O)c1ccccc1)NC12CC3CC(CC(C3)C1)C2`: the kinetic solubility came out at 9.2 µg/mL (≈ 29.4 µM).
In turn, `N#Cc1ccccc1COc1cccc2c1CCCC2O` (stereo not given) yielded a kinetic solubility of 2.1 µg/mL (≈ 7.52 µM).
In turn, `Cc1ccc(S(=O)(=O)N(C)C)cc1NC(=O)Nc1ccccc1F` gave a solubility (kinetic) of 1.7 µg/mL (≈ 4.84 µM).
`C=C(Br)Cn1cnc2ccccc21` registered a kinetic solubility greater than 35.6 µg/mL.
`Cc1ccccc1NC(=S)N(Cc1ccccc1)Cc1cccs1`: the solubility (kinetic) was determined as 0.7 µg/mL (≈ 1.99 µM).
As for `O=C(c1ccc(Cl)c(S(=O)(=O)N2CCOCC2)c1)N1CCc2ccccc2C1`, the solubility (kinetic) is greater than 63.1 µg/mL.
For the compound `COC(=O)c1ccc(NC(=O)NC(=O)Oc2ccccc2)cc1`, the solubility (kinetic) amounted to 42.5 µg/mL (≈ 135 µM).
As to `Cc1cnc(C(=O)OCc2nc3ccccc3o2)cn1`, the kinetic solubility is greater than 40.4 µg/mL.
Compound `COc1ccc(NC(=O)C2CCN(c3cnccn3)CC2)cc1OC` came in with a kinetic solubility of 24.7 µg/mL (≈ 72.1 µM).
With `Nc1ncncc1-c1ccc(Cl)cc1` the figure was greater than 30.8 µg/mL.
Next, `Cc1ccc2c(c1)N(CC(=O)N1CCOCC1)C(=O)C(C)O2` (stereo not given): 39.6 µg/mL (≈ 130 µM); `Oc1ccccc1-c1nc(NCc2cccnc2)c2ccccc2n1`: less than 0.2 µg/mL.
`CCc1noc(C)c1C(=O)OCC(=O)c1ccc(OC)c(OC)c1`: the solubility (kinetic) is 46 µg/mL (≈ 138 µM).
`CCOC(=O)N1CCN(CC(=O)Nc2ccc(F)c(F)c2)CC1` returned a kinetic solubility greater than 49.1 µg/mL.
In the case of `O=[N+]([O-])c1ccccc1S(=O)(=O)Nc1cccc2cccnc12`, the kinetic solubility is 1.8 µg/mL (≈ 5.47 µM).
`CC(=O)Nc1ccc(C(=S)NCC2(N(C)C)CCCCC2)cc1` yielded a solubility (kinetic) of 21.1 µg/mL (≈ 63.3 µM). Compared with the last compound, the solubility kinetic is about 12-fold higher.
For the compound `O=C(COc1ccccc1O)NC1CCCC1`, the solubility (kinetic) is greater than 35.3 µg/mL.
Next, `CCC(CO)NC(=O)c1ccccc1C(F)(F)F` (stereo not given): 28 µg/mL (≈ 107 µM); `CC(=O)Nc1ccc(S(=O)(=O)N2CCSc3ccccc32)cc1`: 49.6 µg/mL (≈ 142 µM).
In the case of `CCOC(=O)C1(Cc2ccccc2)C(=O)N(CCCN(C)C)c2ccccc21.Cl` (stereo not given), the kinetic solubility stood at 57 µg/mL.
For the compound `Cc1cccn2c(=O)c3cc(C(=O)N4COCC4(C)C)sc3nc12`, the kinetic solubility amounted to 9.2 µg/mL (≈ 26.8 µM).
With `Cc1cc(NS(=O)(=O)c2ccc(NC(=O)CNS(=O)(=O)c3ccccc3)cc2)nc(C)n1`, the kinetic solubility amounted to 67.3 µg/mL (≈ 142 µM).
As for `O=C(Cc1c(F)cccc1Cl)NC1CCN(Cc2ccccc2)CC1`, the solubility (kinetic) turned out to be 50.5 µg/mL (≈ 140 µM). This solubility kinetic and that of the compound before are within 1.5-fold of each other.
On to `Cc1cc(NC(=O)COc2c(C)cccc2C)no1`, for which the solubility (kinetic) turned out to be 6.9 µg/mL (≈ 26.5 µM).
Consider `Cc1cc(Cl)n2c(nc3ccccc32)c1C#N`, for which the solubility (kinetic) was 15.3 µg/mL (≈ 63.3 µM).
Next, `C=CC(=O)NC(C)(C)CCN1CCOCC1`: greater than 33.9 µg/mL; `NS(=O)(=O)c1ccc(CCNC(=O)CN2CCCCCC2)cc1`: greater than 50.9 µg/mL.
For `CCN1CCN(CCc2nc3cc([N+](=O)[O-])ccc3n2C)CC1`, the kinetic solubility is greater than 47.6 µg/mL.
For `CC1CN(c2ccc([N+](=O)[O-])cc2Cl)CCN1S(C)(=O)=O` (stereo not given), the solubility (kinetic) was greater than 50.1 µg/mL.
On to `CC(=O)N1CCN(C(=S)NC(=O)c2ccc(F)cc2)CC1`, for which the kinetic solubility was greater than 46.4 µg/mL.
For the compound `CCCS(=O)(=O)N1CCCC(C(=O)Oc2ccc(OC)cc2)C1` (stereo not given), the solubility (kinetic) is 40.5 µg/mL (≈ 119 µM).
`COc1ccc(NC(=O)c2cc(C)cc(C)c2)cc1[N+](=O)[O-]` returned a solubility (kinetic) of less than 0.3 µg/mL.
With `O=C(CCS(=O)(=O)c1ccccc1)Nc1nc(-c2ccc(F)cc2)cs1` the figure was less than 0.4 µg/mL.
Compound `Cc1cc2c(SCC(=O)NC3CCCCC3)ncnc2s1` returned a solubility (kinetic) of 4.4 µg/mL (≈ 13.7 µM).
With `CCCCN(C(=O)COC(=O)c1ccc(C)s1)c1c(N)n(CCC)c(=O)[nH]c1=O` the figure was 17.9 µg/mL (≈ 42.4 µM).
In the case of `COc1cccc2c(=O)c3c([nH]c12)OC(C)(C)C3`, the solubility (kinetic) was greater than 36.8 µg/mL.
With `CC1C(=O)Nc2ccc(S(=O)(=O)N3CCCCCC3)cc21` (stereo not given), the solubility (kinetic) is greater than 46.3 µg/mL.
`COC(=O)c1cc(CSc2nc3ccccc3c(=O)n2C)oc1C`: the solubility (kinetic) stood at 4.4 µg/mL (≈ 12.8 µM).
With `O=C1C2C3CCC(O3)C2C(=O)N1c1cccc(O)c1` (stereo not given), the kinetic solubility was greater than 38.9 µg/mL.
Compound `C=CCOc1cccc(CNc2cccc(C(=O)O)c2)c1` displayed a solubility (kinetic) greater than 42.5 µg/mL.
Regarding `Cc1cccc(NC(=O)Nc2ccc(Br)cc2)n1`, the kinetic solubility is less than 0.2 µg/mL.
Next, `Nc1nc(C2CCOCC2)cs1`: greater than 27.6 µg/mL; `CC(C)CCC1(C)NC(=O)N(CC(=O)NCC(=O)Nc2ccc(F)c(F)c2F)C1=O` (stereo not given): greater than 64.3 µg/mL.
Next, `O=C1c2ccccc2C(=O)N1CCOc1ccc(F)cc1`: 4 µg/mL (≈ 14 µM).
With `N#Cc1ccc(COC(=O)c2cnc(Cl)c(Cl)c2)cc1` the figure was 1.4 µg/mL (≈ 4.56 µM); with `CC1CC(OCC(O)CN2CCCCC2C)CC(C)(C)C1.Cl` (stereo not given), greater than 50.1 µg/mL; with `COc1ccc2nc(SCC(=O)Nc3ccccc3OC)[nH]c2c1`, 39.6 µg/mL (≈ 115 µM).
The compound `Cc1ccsc1C(=O)N1CCN(c2ccccn2)CC1` registered a solubility (kinetic) greater than 43.1 µg/mL.
`CN(C)CCC(=O)c1ccc(F)cc1.Cl` registered a solubility (kinetic) greater than 34.8 µg/mL.
Regarding `C[Se]C[C@@H](N)C(=O)O.Cl`, the kinetic solubility is greater than 32.8 µg/mL.
With `CC(C)(C)NCC(O)c1cc(O)cc(O)c1.O=S(=O)(O)O` (stereo not given) the figure was greater than 41.1 µg/mL; with `Cc1ccc(C)c(NC(=O)c2cc([N+](=O)[O-])cc([N+](=O)[O-])c2)c1`, 0.6 µg/mL (≈ 1.9 µM); with `O=c1ccnc(Nc2ccc([N+](=O)[O-])cc2)[nH]1`, greater than 34.8 µg/mL.
`Cc1ccc(C(=O)NCCCNC(=O)Cc2ccccc2)cn1` gave a solubility (kinetic) greater than 46.7 µg/mL.
`O=C(CCSCc1ccccc1F)NCc1cccnc1` had a solubility (kinetic) greater than 45.7 µg/mL.
Next, `CCN1CCN(c2oc(-c3ccco3)nc2C#N)CC1`: 35.9 µg/mL (≈ 132 µM).
Compound `O=C(COc1ccccc1)OCC(=O)c1c[nH]c2ccccc12` displayed a solubility (kinetic) of 8.9 µg/mL (≈ 28.8 µM).
Compound `O=CN1CCN(c2c([N+](=O)[O-])c(=O)oc3ccccc23)CC1` yielded a kinetic solubility greater than 45.5 µg/mL.
Compound `Cn1ncc2c(NCc3ccccc3)nc(NCCCO)nc21` registered a solubility (kinetic) greater than 46.9 µg/mL.
`O=C(NCCCc1nc2ccccc2[nH]1)c1cccs1` had a solubility (kinetic) of 37.4 µg/mL (≈ 131 µM).
`O=C(NC1CCCCC1)c1cc(-c2ccccc2Cl)on1` came in with a solubility (kinetic) of less than 0.3 µg/mL.
Regarding `O=C(/C=C/c1cccc([N+](=O)[O-])c1)OCC(=O)c1ccccc1`, the solubility (kinetic) is less than 0.7 µg/mL.
With `Cc1cnc(C(=O)Nc2cc(F)ccc2C)cn1` the figure was 15.6 µg/mL (≈ 63.6 µM).
In turn, `O=C(Cc1c(F)cccc1Cl)NCc1cccnc1` registered a kinetic solubility greater than 41.8 µg/mL.
As for `CC1CC(C)CN(C(=O)c2ccc3ccccc3c2)C1` (stereo not given), the kinetic solubility was determined as 33.3 µg/mL (≈ 125 µM).
With `COc1ccc(-n2c(C)c(C(=O)O)c3cc(OC)c4ccccc4c32)cc1` the figure was less than 0.8 µg/mL; with `C=CCN1C(=O)C2(OCCO2)c2cc(C)ccc21`, greater than 36.8 µg/mL.
On to `NC(=O)C1CCCNC1` (stereo not given), for which the solubility (kinetic) was greater than 19.2 µg/mL.
For `CCOC(=O)CCCNC(=O)CCNC(=O)c1ccc(OCCC(C)C)cc1`, the solubility (kinetic) is greater than 58.9 µg/mL.
`CCC(=O)OCC(=O)N=c1sccn1Cc1ccc(C)cc1` came in with a solubility (kinetic) of 36.4 µg/mL (≈ 114 µM).
As to `Cc1cc(C2CC(=O)Nc3ccccc3S2)c(C)s1` (stereo not given), the solubility (kinetic) was less than 0.6 µg/mL.
